Read-outs that look alike come from different tables or passages of the source.
Key:
NCI-H522 = format: cell-based; settings: NCI-H522, five-dose test
COLO 205 = format: cell-based; settings: COLO 205, five-dose test
RXF 393 = format: cell-based, human; settings: RXF 393, five-dose test
MDA-MB-231/ATCC = format: cell-based; settings: five-dose test
SW-620 = format: cell-based; settings: SW-620, five-dose test
SN12C = format: cell-based; settings: five-dose test
ACHN = format: cell-based; settings: Homo sapiens, five-dose test
EKVX = format: cell-based; settings: five-dose test
HCT-116 = format: cell-based; settings: Homo sapiens; HCT-116, five-dose test
MCF7 = format: cell-based; settings: MCF7, five-dose test
U251 = format: cell-based, human; settings: U251, five-dose test
SR = format: cell-based; settings: five-dose test
SK-OV-3 = format: cell-based, human; settings: SK-OV-3, five-dose test
OVCAR-3 = format: cell-based; settings: Homo sapiens; OVCAR-3, five-dose test
[1] = tested on: non-small cell lung cancer subpanel; format: cell-based, human
NCI-H23 = format: cell-based; settings: NCI-H23, five-dose test
Melanoma subpanel = format: cell-based, human
[2] = tested on: Full panel of NCI cancer cell lines; format: cell-based
CCRF-CEM = format: cell-based; settings: five-dose test
Colon Cancer subpanel = format: cell-based, human
UACC-257 = format: cell-based; settings: UACC-257, five-dose test
HOP-62 = format: cell-based; settings: HOP-62, five-dose test
M14 = format: cell-based; settings: M14, five-dose test
CAKI-1 = format: cell-based, human; settings: CAKI-1, five-dose test
[3] = Homo sapiens, read-out: LC50 (the source's name)

COc1ccc2c(c1)/C(=N/NC(=O)c1oc3ccccc3c1C)C(=O)N2 [Compound 5d]
GI50 (NCI-H522; Homo sapiens): 6.07 µM | LC50 (concentration killing 50% of cells) (NCI-H522; Homo sapiens): > 100 µM | TGI (NCI-H522): >100 µM | TGI (COLO 205): >100 µM | LC50 (concentration killing 50% of cells) (COLO 205; Homo sapiens): > 100 µM | GI50 (RXF 393; Homo sapiens): 1.79 µM | TGI (RXF 393): 3.70 µM | GI50 (MDA-MB-231/ATCC; Homo sapiens): 2.07 µM | CC50 (MDA-MB-231/ATCC; [3]): > 100 µM | TGI (MDA-MB-231/ATCC): 5.10 µM | CC50 (SW-620; [3]): > 100 µM | TGI (SW-620): >100 µM | GI50 (SN12C; Homo sapiens): 2.82 µM | CC50 (SN12C; [3]): > 100 µM | TGI (SN12C): >100 µM | GI50 (ACHN): 1.77 µM | GI50 (EKVX; Homo sapiens): 2.94 µM | LC50 (concentration giving 50% net cell kill) (EKVX; Homo sapiens): > 100 µM | TGI (EKVX): >100 µM | GI50 (HCT-116): 1.92 µM | CC50 (MCF7; [3]): > 100 µM | TGI (MCF7): >100 µM | GI50 (U251; Homo sapiens, U-251): 2.03 µM | TGI (U251): 4.26 µM | CC50 (SR; [3]): > 100 µM | TGI (SR): >100 µM | GI50 (SK-OV-3; Homo sapiens): 1.82 µM | TGI (SK-OV-3): 3.83 µM | GI50 (OVCAR-3): 1.84 µM | GI50 ([1]; Homo sapiens, non-small cell lung cancer subpanel, read-out: MG-MID (GI50 average of the subpanel)): 2.8 µM | Selectivity index ([1]; full panel MID / subpanel MID, non-small cell lung cancer): 0.89 | GI50 (NCI-H23; Homo sapiens): 1.86 µM | LC50 (NCI-H23; Homo sapiens): > 100 µM | TGI (NCI-H23): 4.43 µM | GI50 (Melanoma subpanel; Homo sapiens, Melanoma subpanel, read-out: MG-MID (GI50 average of the subpanel)): 3.18 µM | Selectivity index (Melanoma subpanel; full panel MID / subpanel MID, Melanoma): 0.78 | LC50 ([2]; Homo sapiens, all cancer cell lines examined except HOP-62, SNB-75 and SK-MEL-2): > 100 µM | GI50 ([2]; Homo sapiens, all examined cancer cell subpanels except HL60(TB), read-out: GI50 values range): 1.25 to 6.07 µM | GI50 ([2]; Homo sapiens, average sensitivity for all cell lines, read-out: Full panel MG-MID (GI50)): 2.51 µM | selectivity index range over subpanels ([2]; all tested subpanels): 0.78 to 1.30 | TGI ([2]; entire Leukaemia, Colon cancer and Prostate Cancer and the remaining examined cancer cell lines): more than 100 µM | CC50 (CCRF-CEM; [3]): > 100 µM | TGI (CCRF-CEM): >100 µM | GI50 (Colon Cancer subpanel; Homo sapiens, Colon Cancer subpanel, read-out: MG-MID (GI50 average of the subpanel)): 1.92 µM | Selectivity index (Colon Cancer subpanel; full panel MID / subpanel MID, Colon Cancer): 1.30 | LC50 (concentration killing 50% of cells) (UACC-257; Homo sapiens): > 100 µM | TGI (UACC-257): >100 µM | TGI (HOP-62): 4.02 µM | GI50 (HOP-62; Homo sapiens): 1.92 µM | CC50 (HOP-62; [3]): 8.44 µM | CC50 (M14; [3]): > 100 µM | TGI (M14): >100 µM | TGI (CAKI-1): 3.24 µM | GI50 (CAKI-1; Homo sapiens): 1.56 µM
